Experimental data: ChEMBL document CHEMBL4673263, “Evaluation of PNU-159682 antibody drug conjugates (ADCs)” (Bioorg Med Chem Lett, 2020)

How the values were obtained:
[1] = system: MES-SA; assay: Cytotoxicity against human MES-SA cells assessed as reduction in cell viability; assay type: functional, cell-based
[2] = system: MES-SA/Dx5; assay: Cytotoxicity against human MES SA/DX5 cells assessed as reduction in cell viability; assay type: functional, cell-based
[3] = system: HEK-293T; assay: Cytotoxicity against HEK293T cells assessed as reduction in cell viability; assay type: cell-based; conditions: Homo sapiens
[4] = Stability of the compound in rat plasma incubated for 7 days; assay type: ADME, cell-free; conditions: 168 h, time 7 day
[5] = Stability of compound in mouse plasma incubated for 7 days; assay type: ADME, cell-free; conditions: 168 h, time 7 day

Stabilty [4]	Stabilty [5]	Structure (SMILES)	EC50 [1] [nM]	EC50 [2] [nM]	EC50 [3] [nM]
–	–	COc1cccc2c1C(=O)c1c(O)c3c(c(O)c1C2=O)C[C@@](O)(c1csc(N)n1)C[C@@H]3O[C@H]1C[C@H]2[C@H](O[C@@H]3[C@@H](OC)OCCN32)[C@H](C)O1	0.046	0.139	0.051
–	–	CNc1nc([C@]2(O)Cc3c(O)c4c(c(O)c3[C@@H](O[C@H]3C[C@H]5[C@H](O[C@@H]6[C@@H](OC)OCCN65)[C@H](C)O3)C2)C(=O)c2c(OC)cccc2C4=O)cs1	0.047	0.125	0.052
–	–	COc1cccc2c1C(=O)c1c(O)c3c(c(O)c1C2=O)C[C@@](O)(c1csc(N(C)C)n1)C[C@@H]3O[C@H]1C[C@H]2[C@H](O[C@@H]3[C@@H](OC)OCCN32)[C@H](C)O1	0.07	0.113	0.065
–	–	COc1cccc2c1C(=O)c1c(O)c3c(c(O)c1C2=O)C[C@@](O)(c1cnc(C)[nH]1)C[C@@H]3O[C@H]1C[C@H]2[C@H](O[C@@H]3[C@@H](OC)OCCN32)[C@H](C)O1	0.0017	> 0.3	0.024
–	–	COc1cccc2c1C(=O)c1c(O)c3c(c(O)c1C2=O)C[C@@](O)(c1csc(C)n1)C[C@@H]3O[C@H]1C[C@H]2[C@H](O[C@@H]3[C@@H](OC)OCCN32)[C@H](C)O1	0.0116	0.0101	0.012
–	–	COc1cccc2c1C(=O)c1c(O)c3c(c(O)c1C2=O)C[C@@](O)(C(=O)CO)C[C@@H]3O[C@H]1C[C@H]2[C@H](O[C@@H]3[C@@H](OC)OCCN32)[C@H](C)O1	0.0002	0.00038	0.00037
Stable	Stable	COc1cccc2c1C(=O)c1c(O)c3c(c(O)c1C2=O)C[C@@](O)(c1csc(N(C)C(=O)[C@H](C)NC(=O)[C@@H](NC(=O)CN2C(=O)C=CC2=O)C(C)C)n1)C[C@@H]3O[C@H]1C[C@H]2[C@H](OC3[C@@H](OC)OCCN32)[C@H](C)O1 (stereo partly specified)	–	–	–
–	–	COc1cccc2c1C(=O)c1c(O)c3c(c(O)c1C2=O)C[C@@](O)(c1nnc(C)[nH]1)C[C@@H]3O[C@H]1C[C@H]2[C@H](O[C@@H]3[C@@H](OC)OCCN32)[C@H](C)O1	0.034	> 15	0.033
–	–	COc1cccc2c1C(=O)c1c(O)c3c(c(O)c1C2=O)C[C@@]1(C[C@@H]3O[C@H]2C[C@H]3[C@H](O[C@@H]4[C@@H](OC)OCCN43)[C@H](C)O2)OC(=O)OCC1=O	0.0005	0.0009	0.00069
